Laboratory results taken from paper PMC3566115, “Interaction Domain of Glycoproteins gB and gH of Marek's Disease Virus and Identification of an Antiviral Peptide with Dual Functions” (PLoS ONE, 2013).
Where “and” joins values, the source holds several entries; their conditions need not be identical. Equal values may be shown once. Entries after “also recorded” stand apart in the source; their conditions may differ. Read-outs that look alike come from different tables or passages of the source. Where no end group is shown, it is not given here.

Legend:
MDV strain RB1B [1] = conditions: cited from earlier work; for IC50: MDV plaque formation, previous study, read-out: 50% inhibitory concentration (IC50), plaque formation
Description: Our previous study reported that both glycoproteins gB and gH of the herpesvirus Marek's disease virus (MDV) contain eleven potential heptad repeat domains. […] HR1 and HR2 can form of a six-helix bundle structure, which is known as the virus fusion central core and is believed to bring the viral and cellular membranes closer together. […] This observation is in contrast with our results with MDV and other herpesviruses, [29], [33], in which three N-terminal HRs show ...

[2] = individual peptides; previous study; cited from earlier work
Description: In addition, the gBH1 peptide forms a homotrimeric structure with a molecular weight of 10.7 kDa. gHH3 adopts a monomer formation with a molecular weight of 3.8 kDa, and gHH1 forms a homotetramer with a molecular weight of approximately 12.1 kDa. Gel filtration was used to confirm the interactions between peptides. […] As show ...

MDV strain RB1B [3] = format: cell-based, Marek's disease virus; conditions: for IC50: plaque formation, CEF cells, co-treatment: 100 pfu MDV incubated with peptide 2 hrs at 37°C, then 5 days in DMEM 2% FBS, triplicate, means ± SD, read-out: antiviral activity IC50; for virucidal activity (in words): virus pre-treatment: virus incubated with peptide at 25 μM for 1 hr at 37°C, then titrated on cell monolayers
Protocol: Primary chicken embryo fibroblasts (CEFs) were cultured as previously described. CEF-associated MDV strain RB1B,which was obtained from the Shandong Agriculture University and passaged multiple times in primary CEFs was incubated for 2 hrs at 37°C. Following incubation, the virus inoculum on the cells was replaced with DMEM supplemented with 2% FBS, and the cultures were incubated for another 5 days longer Consistent and uniform plaques were observed and counted using an Olympus microscope, and images were captured using DP Controller. CEF-associated MDV from the same passage at 2×10^4 plaque forming units (pfu) was used in both infectivity assays in this study.
All peptides were dissolved in DMEM without FBS and used at a range of concentrations. For the antiviral activities of peptides in the co-treatment assay, 100 pfu of MDV was incubated with the peptide at different concentrations for 2 hrs at 37°C. Following incubation, the virus-peptide mixtures on the cells were replaced with DMEM supplemented with 2% FBS, and the cultures were incubated for 5 days. At the end of this period, 50% inhibitory concentrations (IC50) values were calculated. […] For all treatments, unpenetrated virus was inactivated in a low pH buffer after the 45 min incubation with cells at 37°C. The monolayers were incubated for 5 days at 37°C in DMEM supplemented with 2% FBS. The ratio of plaque counts to the no peptide sample control is reported as the percentage of plaque formation (by arithmetic conversion of the mean percent plaque formation). The results are expressed as the average of triplicates ± the standard deviation, and all experiments were performed in parallel with each peptide and a non-specific peptide (i.e., scramble).

[4] = molecular target: gH-derived HR3 peptide (gHH3) (Marek's disease virus strain RB1B)
[5] = molecular target: gH-derived HR3 peptide (gHH3) (Marek's disease virus strain RB1B); experiment: SEC
[6] = molecular target: gH-derived HR3 peptide (gHH3) (Marek's disease virus strain RB1B); experiment: SEC; remark: listed apart in the source
[7] = molecular target: gB-derived HR1 peptide (gBH1) (Marek's disease virus strain RB1B); experiment: SEC
Chain of gB-derived HR1 peptide (gBH1) (Marek's disease virus strain RB1B) (P18538 340-367 limits assumed): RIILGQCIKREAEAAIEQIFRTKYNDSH

Row | Molecule | IC50 (MDV strain RB1B [1]) [µM] | Molecular mass of individual peptide in solution by gel filtration [2] | Molecular state of individual peptide [2] | IC50 (MDV strain RB1B [3]) [µM] | further results
1 | CC[C@H](C)[C@H](NC(=O)[C@H](C)NC(=O)[C@H](C)NC(=O)[C@H](CCC(=O)O)NC(=O)[C@H](C)NC(=O)[C@H](CCC(=O)O)NC(=O)[C@H](CCCNC(=N)N)NC(=O)[C@H](CCCCN)NC(=O)[C@@H](NC(=O)[C@H](CS)NC(=O)[C@H](CCC(N)=O)NC(=O)CNC(=O)[C@H](CC(C)C)NC(=O)[C@@H](NC(=O)[C@@H](NC(=O)[C@@H](N)CCCNC(=N)N)[C@@H](C)CC)[C@@H](C)CC)[C@@H](C)CC)C(=O)N[C@@H](CCC(=O)O)C(=O)N[C@@H](CCC(N)=O)C(=O)N[C@H](C(=O)N[C@@H](Cc1ccccc1)C(=O)N[C@@H](CCCNC(=N)N)C(=O)N[C@H](C(=O)N[C@@H](CCCCN)C(=O)N[C@@H](Cc1ccc(O)cc1)C(=O)N[C@@H](CC(N)=O)C(=O)N[C@@H](CC(=O)O)C(=O)N[C@@H](CO)C(=O)N[C@@H](Cc1c[nH]cn1)C(=O)O)[C@@H](C)O)[C@@H](C)CC [gBH1] | < 12 | 10.7 kDa | homotrimeric; also recorded: Trimer | – | –
2 | EERKKLGEEIKKEAEEAKKQIEETKKNDEE [gHB1-EK] | – | – | – | 8.7 ± 1.29 | –
3 | HMNASDMEIKSYINMIESVEESSNYDF [gHH1] | < 12 | approximately 12.1 kDa and 12.1 kDa | homotetramer; also recorded: Tetramer | 4.1 ± 0.26 | virucidal activity (in words) (MDV strain RB1B [3]): no or low virucidal activity; blocking of viral infection in co-treatment and post-treatment assays (in words) (MDV strain RB1B [1]; virus co-treatment (co) and post-treatment (post)): blocked viral infection
4 | KKNEEIIKKLEEKTKKNEEKNKKSEEILKKLEELRKK [gHH3-EK] | – | – | – | 6.3 ± 1.16 | –
5 | NADIIKSLIRKTIINASKNTASLSILQHLYVLRS [gHH3] | < 12 | 3.8 kDa | Monomer | 12.2 ± 0.28 | virucidal activity (in words) (MDV strain RB1B [3]): no or low virucidal activity
6 | gB-derived HR1 peptide (gBH1) | – | – | – | – | antiviral activity IC50 (plaque formation, MDV on CEF cells) of the mixture of the three peptides gHH1+gHH3+gBH1, the same level as gHH1 alone [4]: 4.7 µM; stoichiometry N [5]: 1; stoichiometry N [6]: 3
7 | gH-derived HR1 peptide (gHH1) | – | – | – | – | stoichiometry N [7]: 1; stoichiometry N [5]: 3; stoichiometry N [6]: 1
